# Calls of active or inactive are those of the source.
# Key:
# [1] = target: Cytochrome P450 2C9 (Homo sapiens, UniProt P11712)
# [2] = target: Cytochrome P450 2D6 (Homo sapiens, UniProt P10635);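 also: CYP2D6 member of a cytochrome P450 panel assay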
# [3] = target: Cytochrome P450 2C19 (Homo sapiens, UniProt P33261); assay: Cytochrome panel assay with activity outcomes. Panel member name: p450-cyp2c19 Compounds with AC50 equal or less than 10 uM are considered active; format: functional; details: read-out: AC50
# [4] = Luminescence Cell-Based Dose Retest to Confirm Inhibitors of Cancer Stem Cells. [Related pubchem assays (depositor defined):AID2717, AID2721]; format: functional; details: Homo sapiens
# [5] = Luminescence Cell-Based Dose Response HTS to Identify Activators of Luciferase Translation or Activity in H4 […] Cells. [Related pubchem assays: 1829 (Project Summary), 1814 (Primary HTS)]; format: functional
# [6] = tested on: H4; assay: Luminescence Cell-Based Dose Response HTS to Identify Activators of 5'UTR Stem-Loop Driven Prion Protein mRNA Translation in H4 Neuroglioblastoma Cells. [Related pubchem assays: 1829 (Project Summary), 1814 (Primary HTS)]; format: functional; details: Homo sapiens
# [7] = cells; format: functional, cell-based
# [8] = target: T1, Corticotropin-releasing factor receptor 2/Corticotropin-releasing factor-binding protein (Homo sapiens, UniProt P24387+Q13324); assay: activators of CRF receptor 2 with binding protein – uHTS hits, confirmation (AID 602473); format: functional; details: read-out: EC50_Mean
# T1 sequence (Q13324 whole entry): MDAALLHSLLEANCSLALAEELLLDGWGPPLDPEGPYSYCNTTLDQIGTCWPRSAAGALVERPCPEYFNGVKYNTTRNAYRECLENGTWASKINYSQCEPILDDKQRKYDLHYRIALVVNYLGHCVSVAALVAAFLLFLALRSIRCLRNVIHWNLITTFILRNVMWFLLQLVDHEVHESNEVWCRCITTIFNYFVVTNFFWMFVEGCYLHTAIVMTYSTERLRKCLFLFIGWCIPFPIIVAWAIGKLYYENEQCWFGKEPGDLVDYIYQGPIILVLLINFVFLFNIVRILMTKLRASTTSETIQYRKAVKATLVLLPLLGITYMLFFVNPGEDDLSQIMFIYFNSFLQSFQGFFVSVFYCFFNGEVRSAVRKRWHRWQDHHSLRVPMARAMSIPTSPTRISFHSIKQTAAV
# T1 sequence (P24387 whole entry): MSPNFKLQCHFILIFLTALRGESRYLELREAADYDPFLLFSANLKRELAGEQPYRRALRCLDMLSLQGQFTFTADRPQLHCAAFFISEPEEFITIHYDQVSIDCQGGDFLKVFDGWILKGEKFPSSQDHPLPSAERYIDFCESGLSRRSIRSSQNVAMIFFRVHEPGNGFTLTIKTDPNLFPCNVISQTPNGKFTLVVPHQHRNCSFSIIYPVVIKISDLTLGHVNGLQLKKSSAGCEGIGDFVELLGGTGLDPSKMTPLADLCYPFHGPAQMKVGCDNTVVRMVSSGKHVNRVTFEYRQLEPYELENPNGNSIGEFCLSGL
# [9] = target: T1, Corticotropin-releasing factor receptor 2/Corticotropin-releasing factor-binding protein; assay: Dose Response confirmation of uHTS hits for small molecule antagonists of the CRF-binding protein and CRF-R2 receptor complex.; format: functional; details: read-out: IC50_Mean
# [10] = target: Cytochrome P450 3A4 (Homo sapiens, UniProt P08684);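 also: CYP3A4 tested as one member of a cytochrome P450 panel screen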
# [11] = cells; format: functional
# [12] = target: T2, Polyadenylate-binding protein 1 (Homo sapiens, UniProt P11940); assay: MLLE domain peptide-binding blockers, IC50 – biochemical, fluorescence polarization, FITC-PAM2 peptide, dose response (AID 602259); format: functional; details: read-out: IC50_Mean
# [13] = target: T2, Polyadenylate-binding protein 1; assay: MLLE binding blockers, Cy5 peptide tracer – biochemical, fluorescence polarization, Cy5-PAM2 peptide, secondary, miRNA deadenylation inhibitor project, dose response (AID 602260); format: functional; details: read-out: IC50_Mean
# [14] = tested on: INS1; assay: INS-1E survival protection against cytokine death – cell-based, luminescence, retest, dose response (AID 449756); format: functional; details: Rattus norvegicus;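 also: cell death triggered by IL-1 beta plus TNF-alpha plus IFN-gamma mixture; protective hits raise ATP signal compared with cytokine alone wells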
# Chain of Cytochrome P450 2D6 (P10635 whole entry): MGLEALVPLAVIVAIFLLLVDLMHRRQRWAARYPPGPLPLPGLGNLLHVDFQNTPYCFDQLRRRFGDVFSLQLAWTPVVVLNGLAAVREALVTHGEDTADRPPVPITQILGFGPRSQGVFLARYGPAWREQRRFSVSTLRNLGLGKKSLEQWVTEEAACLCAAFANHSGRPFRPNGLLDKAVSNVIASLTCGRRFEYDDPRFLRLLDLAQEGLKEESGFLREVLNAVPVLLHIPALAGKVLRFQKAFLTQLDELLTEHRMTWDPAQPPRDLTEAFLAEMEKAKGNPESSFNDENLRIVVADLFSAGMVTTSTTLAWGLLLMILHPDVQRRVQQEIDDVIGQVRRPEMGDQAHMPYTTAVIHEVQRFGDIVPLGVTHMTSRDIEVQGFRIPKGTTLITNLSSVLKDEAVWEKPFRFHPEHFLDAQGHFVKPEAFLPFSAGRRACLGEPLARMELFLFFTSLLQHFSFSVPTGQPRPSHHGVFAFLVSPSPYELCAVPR
# Chain of Cytochrome P450 2C9 (P11712 whole entry): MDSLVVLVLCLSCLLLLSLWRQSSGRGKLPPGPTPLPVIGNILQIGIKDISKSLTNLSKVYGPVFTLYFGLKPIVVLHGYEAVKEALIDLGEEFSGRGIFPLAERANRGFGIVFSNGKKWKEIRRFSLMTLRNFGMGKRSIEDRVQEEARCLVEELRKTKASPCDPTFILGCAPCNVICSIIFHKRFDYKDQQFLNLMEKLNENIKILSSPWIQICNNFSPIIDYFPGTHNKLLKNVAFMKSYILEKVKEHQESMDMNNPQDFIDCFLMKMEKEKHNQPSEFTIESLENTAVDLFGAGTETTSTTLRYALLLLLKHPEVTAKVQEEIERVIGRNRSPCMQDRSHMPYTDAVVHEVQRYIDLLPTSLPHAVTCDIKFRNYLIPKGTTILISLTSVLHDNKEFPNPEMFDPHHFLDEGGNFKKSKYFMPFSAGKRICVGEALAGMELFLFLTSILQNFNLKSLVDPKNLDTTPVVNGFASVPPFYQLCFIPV
# Chain of Cytochrome P450 2C19 (P33261 whole entry): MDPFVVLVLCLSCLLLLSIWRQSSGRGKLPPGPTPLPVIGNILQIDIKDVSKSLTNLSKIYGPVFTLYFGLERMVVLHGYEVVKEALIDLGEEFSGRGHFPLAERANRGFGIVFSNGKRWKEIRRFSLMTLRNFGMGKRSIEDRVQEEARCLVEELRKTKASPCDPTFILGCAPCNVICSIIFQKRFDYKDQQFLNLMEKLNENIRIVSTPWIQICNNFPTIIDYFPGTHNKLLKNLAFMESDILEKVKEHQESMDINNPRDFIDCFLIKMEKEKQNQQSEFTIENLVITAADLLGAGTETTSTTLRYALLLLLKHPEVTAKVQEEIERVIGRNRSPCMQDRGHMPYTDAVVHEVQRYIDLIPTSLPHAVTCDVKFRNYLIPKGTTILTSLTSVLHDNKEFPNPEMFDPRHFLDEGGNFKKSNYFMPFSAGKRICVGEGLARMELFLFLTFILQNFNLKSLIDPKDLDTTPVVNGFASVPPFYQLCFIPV
# T2 sequence (P11940 whole entry, the tested form may be a part): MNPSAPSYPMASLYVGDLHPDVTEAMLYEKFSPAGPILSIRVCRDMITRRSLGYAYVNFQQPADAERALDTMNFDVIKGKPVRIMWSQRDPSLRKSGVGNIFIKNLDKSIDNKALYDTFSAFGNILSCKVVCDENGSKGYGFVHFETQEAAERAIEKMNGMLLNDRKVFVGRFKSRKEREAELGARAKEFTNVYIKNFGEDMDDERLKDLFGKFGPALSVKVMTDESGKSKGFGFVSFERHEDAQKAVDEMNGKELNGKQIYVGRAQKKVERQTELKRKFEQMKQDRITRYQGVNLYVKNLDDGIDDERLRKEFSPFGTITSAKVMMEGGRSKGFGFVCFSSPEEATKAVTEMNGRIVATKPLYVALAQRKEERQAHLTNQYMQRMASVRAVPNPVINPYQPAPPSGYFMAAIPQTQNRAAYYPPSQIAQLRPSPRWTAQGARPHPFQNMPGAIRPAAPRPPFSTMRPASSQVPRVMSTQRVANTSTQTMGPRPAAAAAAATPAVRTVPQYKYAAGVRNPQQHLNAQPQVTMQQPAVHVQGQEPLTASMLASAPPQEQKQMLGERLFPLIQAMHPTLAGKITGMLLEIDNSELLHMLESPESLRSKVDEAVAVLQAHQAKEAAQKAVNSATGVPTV
# Chain of Cytochrome P450 3A4 (P08684 whole entry): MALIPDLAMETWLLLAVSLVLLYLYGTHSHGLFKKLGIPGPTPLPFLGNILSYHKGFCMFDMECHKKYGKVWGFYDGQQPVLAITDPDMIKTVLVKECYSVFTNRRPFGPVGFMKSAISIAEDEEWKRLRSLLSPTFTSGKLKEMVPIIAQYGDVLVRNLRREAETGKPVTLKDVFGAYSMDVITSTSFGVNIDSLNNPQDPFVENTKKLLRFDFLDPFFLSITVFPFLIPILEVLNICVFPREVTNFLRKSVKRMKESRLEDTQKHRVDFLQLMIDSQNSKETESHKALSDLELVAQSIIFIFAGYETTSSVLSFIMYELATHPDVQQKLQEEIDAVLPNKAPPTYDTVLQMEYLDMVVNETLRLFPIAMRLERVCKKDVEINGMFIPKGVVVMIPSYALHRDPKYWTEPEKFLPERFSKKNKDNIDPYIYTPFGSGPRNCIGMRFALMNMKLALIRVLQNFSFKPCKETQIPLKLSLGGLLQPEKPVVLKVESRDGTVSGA
compound,measurement,setting,value
O=C(NCCO)c1ccc(Cl)cc1,AC50,[1],5.01 µM (inconclusive)
same,AC50,[2],2 µM (inconclusive)
same,AC50,[3],2 µM (inconclusive)
C/C(NC(=O)c1cccc(F)c1)=C1/C(=O)C[C@@H]2[C@H]1C2(C)C,AC50,[4],1.24 µM (active)
same,EC50,[5],29.7 µM (active)
same,EC50,[6],17.8 µM (active)
CCc1nc(N2CCN(C(=O)c3ccco3)CC2)c2c3c(sc2n1)CCCC3,EC50,[7],> 350 µM (not active)
O=C(COc1ccc(S(=O)(=O)NC2CCCCC2)cc1Cl)NCc1cccnc1,EC50,[8],> 53 µM (inactive)
same,IC50,[9],> 47.1 µM (inactive)
COc1ccc(-n2c(=O)c(-c3cn(C)c4ccccc34)nc3cnc(N4CCNCC4)nc32)cc1,AC50,[1],39.8 µM (inconclusive)
same,AC50,[10],20 µM (inconclusive)
same,AC50,[2],20 µM (inconclusive)
CCc1c(C)c2ccc(OCC(=O)OC)cc2oc1=O,IC50,[11],16.6 µM (active)
CCCc1cc(=O)[nH]c(SCC(=O)Nc2nonc2N)n1,IC50,[12],> 66 µM (inactive)
same,IC50,[13],> 66 µM (inactive)
CCC(C)(C)c1ccc(OCC(=O)Nc2ccncc2)cc1,IC50,[11],8.95 µM (active)
CN(CC(=O)Nc1ccc(C#N)cc1)Cc1ccc(Cl)c(Cl)c1,IC50,[11],42.3 µM (active)
CSc1ccccc1NC(=O)c1cc(CC(C)C)on1,EC50,[8],> 53 µM (inactive)
same,IC50,[9],> 47.1 µM (inactive)
O=C(NC(=S)Nc1ccccc1Br)c1ccco1,IC50,[12],> 66 µM (inactive)
same,IC50,[13],> 66 µM (inactive)
CC(=O)c1cccc(NS(=O)(=O)c2ccc(N/C=C\C(=O)c3ccc(F)cc3)cc2)c1,AC50,[14],3.74 µM (active)
same,AC50,[2],8.91 µM (inconclusive)
NS(=O)(=O)c1ccc(/N=N\c2cnc(O)c(O)c2)cc1,AC50,[1],6.31 µM (inconclusive)
same,AC50,[2],5.01 µM (inconclusive)
same,AC50,[3],6.31 µM (inconclusive)
CCCC1(C)Nc2ccccc2-c2nc3ccccc3n21 (stereo not given),AC50,[2],22.4 µM (inconclusive)
COc1ccccc1-c1nc(NCc2cccnc2)c2ccccc2n1,AC50,[2],20 µM (inconclusive)
same,AC50,[3],39.8 µM (inconclusive)
CC1(Cc2ccc3c(c2)OCO3)NC(=O)NC1=O (stereo not given),EC50,[8],> 53 µM (inactive)
same,IC50,[9],> 47.1 µM (inactive)
Cc1cc(=O)n2nc(N3CCC(C(=O)Nc4c(F)c(F)c(F)c(F)c4F)CC3)sc2n1,EC50,[8],> 53 µM (inactive)
same,IC50,[9],> 47.1 µM (inactive)
N#Cc1ccc(CN2CCC3(CC2)CCN(C(=O)c2cc(C(F)(F)F)cc(C(F)(F)F)c2)CC3)cc1,AC50,[2],39.8 µM (inconclusive)
Cc1cc(C)n(CC(=O)NNC(=O)COc2ccc(Br)cc2F)n1,IC50,[12],> 66 µM (inactive)
same,IC50,[13],> 66 µM (inactive)
CCNC(=O)COC(=O)c1ccc(-c2nc3ccccc3s2)s1,IC50,[11],5.44 µM (active)
COc1ccccc1NC(=O)c1cnc(SC)nc1,IC50,[11],49.4 µM (active)
O=C(Nc1ccccc1)c1cc2n(n1)C(C(F)(F)F)CC(C1CC1)N2 (stereo not given),EC50,[5],5.46 µM (active)
same,EC50,[6],> 120 µM (not active)
Cc1ccc(C(=O)N(Cc2sccc2C)C2CCS(=O)(=O)C2)cc1 (stereo not given),EC50,[8],> 53 µM (inactive)
same,IC50,[9],> 47.1 µM (inactive)
COc1ccc(-c2noc(-c3cc4ccccc4oc3=O)n2)cc1,IC50,[11],5.25 µM (active)
COc1cccc(CN2CCN(c3cccc(C(F)(F)F)c3)CC2)c1OC,EC50,[8],> 53 µM (inactive)
same,IC50,[9],> 47.1 µM (inactive)
